In experiment [1] the test system is P. aeruginosa ATCC 27853. Nature of the experiment: MIC by serial dilutions in broth (visible growth). To be noted: Pseudomonas aeruginosa, ATCC27853.
Protocol: (§4) The minimum inhibitory concentration (MIC) and minimum bactericidal concentration (MBC) of the antibacterial composition enriched for the light isotope zinc ^64Zne was evaluated in the experiment. […] S. aureus ATCC 25923, E. coli ATCC 25922 and P. aeruginosa ATCC 27853 were used as test cultures.
(§5) The studies were carried out using the method of serial dilutions in broth. To determine sensitivity of microorganisms to the antibacterial composition, 0.5 ml of broth was placed into each tube. The number of tubes was determined based on the desired number of dilutions and was increased by one for the “negative” control (no test composition). Series of two-fold serial dilutions of the test variants of the antibacterial composition were used and concentrations ranging from 450 mcg ^64Zne/ml to 0.000107 mcg ^64Zne/ml were obtained.
(§6) Reference test strains of S. aureus ATCC 25923, E. coli ATCC 25922 and P. aeruginosa ATCC 27853 were incubated in Mueller-Hinton liquid broth at 37° C. for 24 hours. Standard bacterial suspension equivalent to 0.5 McFarland standard diluted 100-fold with the broth was used for the inoculation of the tubes after which the concentration of microorganism in it was approximately 10^6 CFU/ml.
(§7) 0.5 ml of inoculum was added to each tube containing 0.5 ml of the appropriate dilution of a solution of the ^64Zn-enriched salt of interest. […] The final concentration of the microorganism in each tube was approximately 5×10^5 CFU/ml.
(§8) The tubes were incubated at 35° C. in air for 16-20 or 20-24 hours (depending on the bacterial strain).
(§9) To determine the presence of microorganism growth the test tubes with inoculum were viewed under transmitted light. Transmitted light was measured by spectrophotometry. The growth of culture in the presence of antibacterial compositions based on ^64Zne was compared with the reference test tube (“negative” control), containing the original inoculum and stored in the refrigerator. The MIC was determined as the lowest concentration of ^64Zne that inhibits visible growth of the microorganism. Both gram-positive (S. aureus) and gram-negative bacteria (P. aeruginosa, E. coli) were used in the experiments described below.
(§10) That is, ^64Zne in the form of a salt was compared with a composition that contains zinc with a natural distribution of isotopes. […] Relevant samples containing salt of natural zinc with EDDA and natural zinc sulfate were used for the comparison.
(§11) The following commercial antibacterial medications were used for the study: azithromycin and ceftriaxone and norfloxacin. The initial concentration of 3000 mcg/ml was used for the samples of all the above compounds. […] Serial dilutions of the above antibacterial compounds were also prepared in the same way as for the antibacterial composition of the invention. The same pathogenic strains of S. aureus ATCC 25923, E. coli ATCC 25922, P. aeruginosa ATCC 27853 were used for the study.
Experiment [2] relates to E. coli ATCC 25922. In words: MIC by serial dilutions in broth (visible growth). The experiment is classed as cell-based. To be noted: Escherichia coli, ATCC25922; Table 9, commercial antibacterial agents; read-out: MIC.
Protocol: as §4, §5, §6, §7, §8, §9, §10, §11
The subject of experiment [3] is S. aureus ATCC 25923. Nature of the experiment: MIC by serial dilutions in broth (visible growth). The experiment is classed as cell-based. To be noted: Staphylococcus aureus, ATCC25923; Table 9, commercial antibacterial agents; read-out: MIC.
Protocol: as §4, §5, §6, §7, §8, §9, §10, §11
Experiment [4] concerns E. coli ATCC 25922. Nature of the experiment: MBC by plating tube contents on Mueller-Hinton medium. The experiment is classed as cell-based. To be noted: Escherichia coli, ATCC25922; Table 10, commercial antibacterial agents; read-out: MBC. The method, then: (§1) To evaluate the bactericidal action of the antibacterial composition based on light isotope ^64Zne the minimum bactericidal concentration (MBC) was determined by plating out 0.1 ml of the contents of each tube containing the antibacterial composition on Mueller-Hinton medium. The incubation was at 37° C. for 24 h.
(§2) The MBC of the test samples was determined as the lowest concentration at which there was no growth on Mueller-Hinton agar medium.

The subject of experiment [5] is S. aureus ATCC 25923. The experiment is described as above. The experiment is classed as cell-based. Conditions: Staphylococcus aureus, ATCC25923; Table 10, commercial antibacterial agents; read-out: MBC. The method, then:
as §1, §2

Experiment [6] has as its system P. aeruginosa ATCC 27853. The experiment is described as above. Format: cell-based. To be noted: Pseudomonas aeruginosa, ATCC27853; Table 10, commercial antibacterial agents; read-out: MBC. The method, then: as §1, §2
The subject of the next experiment is P. aeruginosa ATCC 27859. Nature of the experiment: MIC of deuterium-depleted water by serial dilutions in normal saline solution. The experiment is classed as cell-based. To be noted: basic solution, 10^4, 10^6, 10^8 cells/ml; text names ATCC 27853. The method, then:
(§3) The minimum inhibitory concentration (MIC) of deuterium-depleted water was determined by serial dilutions in normal saline solution. Reference strains of E. coli ATCC 25922 and P. aeruginosa ATCC 27859 were used as test cultures. For inoculation, microbial suspension equivalent to a 0.5 standard McFarland (1.5×10^8 cells/ml) was used. Then the dilutions with normal saline solution were prepared so that the concentration of microorganisms reached approximately 10^4 cells/ml. The test cultures were previously grown for 24 hours at 37° C. One-tenth of a milliliter (0.1 ml) of the suspension was placed into each test tube containing 4 ml of the medium with the investigative active substance at a certain concentration (without deuterium-depleted water in the control). The tubes were incubated in an incubator at 37° C. for 24 hours. After incubation the inoculum from each tube was plated on Mueller-Hinton agar medium for P. aeruginosa and on Endo for E. coli and incubated at 37° C. for another 24 hours. The results were evaluated based on the presence of bacterial growth (turbidity) in the nutrient broth and, if necessary, by using other additional known bacteriological tests. The first few tubes remained transparent due to the antimicrobial effect of the study substance. […] The results are shown in the table below and illustrated in FIGS. 5b and 5c.

For experiment [7], the system named is E. coli ATCC 25922. Described as above. The experiment is classed as cell-based. To be noted: basic solution, 10^4, 10^6, 10^8 cells/ml. As for the experimental part:
as §3

Values after ≈ are worked out from the molar mass of the structure shown.

In the case of `CO/N=C(\C(=O)N[C@@H]1C(=O)N2C(C(=O)O)=C(CSc3nc(=O)c(=O)[nH]n3C)CS[C@H]12)c1csc(N)n1` [ceftriaxone, reference compound], the MIC with P. aeruginosa ATCC 27853 [1] worked out at 750 µg/mL (≈ 1350 µM); with E. coli ATCC 25922 [2], 2.93 µg/mL (≈ 5.28 µM); in the experiment on S. aureus ATCC 25923 [3], 11.7 µg/mL (≈ 21.1 µM). Further, the MBC in the experiment with E. coli ATCC 25922 [4] was 11.7 µg/mL (≈ 21.1 µM); with S. aureus ATCC 25923 [5], 375 µg/mL (≈ 676 µM); in the experiment on P. aeruginosa ATCC 27853 [6], less than 1500 µg/mL.

Turning to `O` [deuterium-depleted water], the “bactericidal effect (in words)” value in the experiment on P. aeruginosa ATCC 27859 and in the experiment on E. coli ATCC 25922 [7] was “bactericidal effect” each time.

As to `CCn1cc(C(=O)O)c(=O)c2cc(F)c(N3CCNCC3)cc21` [norfloxacin, reference compound], the MIC was 188 µg/mL (≈ 587 µM) against P. aeruginosa ATCC 27853 [1], 23.4 µg/mL (≈ 73.4 µM) in the experiment on E. coli ATCC 25922 [2] and 11.7 µg/mL (≈ 36.7 µM) in the experiment on S. aureus ATCC 25923 [3]. The MBC in the experiment on E. coli ATCC 25922 [4], in the experiment on S. aureus ATCC 25923 [5] and with P. aeruginosa ATCC 27853 [6] was less than 1500 µg/mL throughout.

As usually defined, the MIC is the lowest concentration found to suppress growth. Usually MBC stands for the lowest tested concentration that kills the bacteria rather than only halting them.
